Here are results for four compounds from US9573956B2, “Compounds as dual inhibitors of phosphodiesterases and histone deacetylases” (FUNDACIÓN PARA LA INVESTIGACIÓN MÉDICA APLICADA, priority 2013, dated 2017).

Assay [1] has as its target T1, HDAC6 (Homo sapiens, UniProt Q9UBN7).
T1 construct: BC069243; Cat. #50006) is full-length with N-terminal GST tag; GST (N); purchased BPS Biosciences 50006; host or cells: baculovirus infected Sf9 cells
T1 sequence (Q9UBN7 1-1215): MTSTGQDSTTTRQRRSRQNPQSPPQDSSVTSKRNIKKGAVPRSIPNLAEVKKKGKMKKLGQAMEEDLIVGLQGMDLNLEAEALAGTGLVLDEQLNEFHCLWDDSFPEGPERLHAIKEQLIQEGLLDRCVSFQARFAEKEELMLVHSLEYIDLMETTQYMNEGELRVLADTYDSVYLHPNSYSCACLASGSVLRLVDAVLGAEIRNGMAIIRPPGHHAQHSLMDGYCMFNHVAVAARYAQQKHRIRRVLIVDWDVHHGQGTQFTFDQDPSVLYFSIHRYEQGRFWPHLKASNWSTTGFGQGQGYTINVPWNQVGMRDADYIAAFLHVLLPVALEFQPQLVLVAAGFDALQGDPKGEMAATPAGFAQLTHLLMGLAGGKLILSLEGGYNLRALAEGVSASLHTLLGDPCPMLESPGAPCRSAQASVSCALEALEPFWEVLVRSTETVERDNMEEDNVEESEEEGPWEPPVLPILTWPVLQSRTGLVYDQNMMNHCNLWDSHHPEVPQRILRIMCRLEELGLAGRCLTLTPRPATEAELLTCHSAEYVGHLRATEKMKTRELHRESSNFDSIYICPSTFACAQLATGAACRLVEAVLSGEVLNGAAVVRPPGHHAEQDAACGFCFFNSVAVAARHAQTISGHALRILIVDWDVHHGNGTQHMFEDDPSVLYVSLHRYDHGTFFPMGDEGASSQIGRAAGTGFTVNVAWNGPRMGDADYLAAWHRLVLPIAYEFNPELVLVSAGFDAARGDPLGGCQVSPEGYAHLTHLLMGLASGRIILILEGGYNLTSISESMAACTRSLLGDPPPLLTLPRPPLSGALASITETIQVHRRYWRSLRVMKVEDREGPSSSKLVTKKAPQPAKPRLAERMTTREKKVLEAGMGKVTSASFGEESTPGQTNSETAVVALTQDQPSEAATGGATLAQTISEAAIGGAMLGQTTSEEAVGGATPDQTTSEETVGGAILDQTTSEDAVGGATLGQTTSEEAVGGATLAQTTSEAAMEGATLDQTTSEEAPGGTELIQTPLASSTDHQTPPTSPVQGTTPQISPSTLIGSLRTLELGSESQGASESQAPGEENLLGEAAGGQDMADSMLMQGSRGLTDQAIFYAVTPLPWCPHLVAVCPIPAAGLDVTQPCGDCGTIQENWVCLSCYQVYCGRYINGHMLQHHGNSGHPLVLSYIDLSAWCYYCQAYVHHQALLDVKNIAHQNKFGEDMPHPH
Kind of assay: HDAC enzyme activity assay (fluorogenic substrate), HDAC6. The class given is biochemical. The following applies: recombinant enzyme; read-out: HDAC6 inhibition (IC50).

The subject of assay [2] is pCREB. Briefly: In-vivo activity, hippocampus of wild type mice: pCREB. Set-up: species or system mouse. The note with it: i.p. 40 mg/kg, hippocampus one hour later. On the procedure:
To determine the ability of the compounds to inhibit HDAC and PDE in the brain, the compound was administered to wild type mice by i.p. at a dose of 40 mg/kg (n=3). Another group of animals received the vehicle (1/1/8, v:v:v, DMSO/Tween 20/saline). One hour later, mice were sacrificed by cervical dislocation and their hippocampus was quickly dissected from the brains.
Total tissue homogenates were obtained by homogenizing the hippocampus in a cold lysis buffer with protease inhibitors (0.2 M NaCl, 0.1 M HEPES, 10% glycerol, 200 mM NaF, 2 mM Na4P2O7, 5 mM EDTA, 1 mM EGTA, 2 mM DTT, 0.5 mM PMSF, 1 mM Na3VO4 and Complete Protease Inhibitor Cocktail, Roche Diagnostics). The homogenate was then centrifuged at 14,000×g at 4° C. for 20 min and the supernatant aliquoted and stored at −80° C. Total protein concentrations were determined using the BioRad Bradford protein assay (BioRad Laboratories). Protein samples were analyzed as described in the “in vitro” section.

Assay [3] deals with carboxyl terminal fragment AβPP (C99). Briefly: AD-related markers in Tg2576 neurons: APP processing (C99). The class given is cell-based. The note with it: Mus musculus, Neuron, 48 h, treated two days, EC50 = 50% decrease in C99 over basal. How it is done: The effects of the compounds on amyloid pathology were analysed in primary cultures (15 DIV) of neurons derived from the hippocampus and cortex of Tg2576 mouse embryos. Tg2576 mice express the human 695-aa isoform of APP (hAPP) containing the Swedish double mutation, which favours Aβ production. Neurons were treated for two days and collected at day 3, 24 h after the last treatment. First it was analysed the effect of the compounds on hAPP processing by the amyloidogenic pathway by measuring the carboxyl terminal fragment AβPP (C99), which is the precursor of Aβ42. In this case the reported EC50, Table 2 (below), means a 50% decrease in C99 levels over basal (saline, no treatment).
To analyze APP-derived fragments and p-tau levels in primary neuronal cultures, cells were collected in a buffer containing SDS (2%), Tris-HCl (10 mM, pH 7.4), protease inhibitors (1 mM PMSF and Complete Protease Inhibitor Cocktail: Roche Diagnostics) and phosphatase inhibitors (0.1 mM Na3VO4 and 1 mM NaF). The homogenates were sonicated for 2 min and centrifuged at 100,000×g for 1 h. Aliquots of the supernatant were frozen at −80° C. and their protein concentrations determined by the Bradford method using the Bio-Rad protein assay (Bio-Rad, Hercules, Calif., USA). Aliquots of the protein extracts were mixed with XT sample buffer plus XT reducing agent (Bio-Rad, Hercules, Calif., USA) and boiled for 5 min. Proteins were separated in a Criterion precast Bis-Tris 4-12% gradient precast gel (Bio-Rad, Hercules, Calif., USA) and transferred to a PVDF membrane with a removal rating of […] (Hybond LFP, Amersham Biosciences, Little Chalfont, UK). The membranes were blocked with 5% milk, 0.05% Tween-20 in PBS or TBS, and incubated overnight with the following primary antibodies in the corresponding buffers: mouse monoclonal anti-phosphotau AT8 (Pierce Biotechnology Inc., Rockford), mouse monoclonal anti-tau (clone Tau46, Sigma-Aldrich, St Louis, Mo.), 6E10 mouse monoclonal antibody (amino acids 1-17 of Aβ peptide; Millipore), mouse monoclonal anti-β-actin, mouse monoclonal anti-α-tubulin and mouse monoclonal anti-Acetylated-tubulin (Sigma). All antibodies were used at dilutions of 1:1,000 except for the mouse monoclonal anti-β-actin, anti-Acetylated-tubulin and anti-tubulin (1:50,000). Following two washes in TBS/Tween20 and one wash in TBS alone, immunolabelled protein bands were detected using HRP-conjugated anti-rabbit or anti-mouse antibodies (diluted 1:5,000: Santa Cruz). Binding was visualised by enhanced chemiluminescence (ECL, GE Healthcare Bioscience, Buckinghamshire, UK) and autoradiographic exposure to Hyperfilm ECL (GE Healthcare Bioscience), using Quantity One™ software v.4.6.3 (Bio-Rad) for quantification.

For `CCCc1nn(C)c2c(=O)[nH]c(-c3cc(CC4CC(C(=O)NO)C4)ccc3OCC)nc12` (racemic) [Example 1-19, 3-[[4-ethoxy-3-(1-methyl-7-oxo-3-propyl-6H-pyrazolo[4,3-d]pyrimidin-5-yl)phenyl]methyl]cyclobutanecarbohydroxamic acid], the half-maximal inhibitory concentration (IC50) in assay [1] lay in the range of 10 to 1000 nM. Also, the “pCREB, increment in biological response vs basal” value in assay [2] is given as “+++ (basal×2≦(+++)<basal×3)”. Moreover, in assay [3], the EC50 was 10 to 1000 nM.

`CCCc1nn(C)c2c(=O)[nH]c(-c3cc(S(=O)(=O)N4CCN(c5ncc(C(=O)NO)cn5)CC4)ccc3OCC)nc12` [Example 1-06, 2-(4-[3-(6,7-Dihydro-1-methyl-7-oxo-3-propyl-1H-pyrazolo[4,3-d]pyrimidin-5-yl)-4-ethoxyphenylsulfonyl]piperazin-1-yl)-N-hydroxypyrimidine-5-carboxamide]: the IC50 in assay [1] lay in the range of 10 to 1000 nM. Besides, in assay [2], the “pCREB, increment in biological response vs basal” value was “+++ (basal×2≦(+++)<basal×3)”. In assay [3], this compound gave an EC50 of 10 to 1000 nM.

As to `CCCc1nn(C)c2c(=O)[nH]c(-c3cc(Cc4ccc(C(=O)NO)cc4)ccc3OCC)nc12` [Example 1-15, 4-[[4-ethoxy-3-(1-methyl-7-oxo-3-propyl-6H-pyrazolo[4,3-d]pyrimidin-5-yl)phenyl]methyl]benzenecarbohydroxamic acid], the half-inhibitory concentration (IC50) in assay [1] lay within 10 to 1000 nM. For the same compound, in assay [2], the “pCREB, increment in biological response vs basal” value is “+ (basal×1 means no increment (+))”. In addition, the EC50 in assay [3] was in the range of 10 to 1000 nM.

Take `CCCc1nn(C)c2c(=O)[nH]c(-c3cc(Cc4ccc(C(=O)NO)s4)ccc3OCC)nc12` [Example 1-16]: the half-inhibitory concentration (IC50) in assay [1] was in the range of 10 to 1000 nM. In assay [2], the “pCREB, increment in biological response vs basal” value is given as “+ (basal×1 means no increment (+))”. Besides, in assay [3], the EC50 lay within 10 to 1000 nM.

The term IC50 denotes the concentration that gives 50% inhibition.
